The target in test [1] is T1, Melanin-concentrating hormone receptor 1 (Homo sapiens, UniProt Q99705). The test is described as follows: Displacement of 125I-[Phe13,Tyr19]-MCH from human MCH-R1. On the technique in general: Displacement assays read how much labelled ligand stays bound in the presence of the test substance.
Test [2] deals with T1, Melanin-concentrating hormone receptor 1. Kind of test: Stimulation of IP3-coupled mobilization of calcium in HEK293 cells expressing MCH-R1. Format: functional, cell-based.
Test [3] concerns the target Melanin-concentrating hormone receptor 2 (Homo sapiens, UniProt Q969V1). Kind of test: Inhibition of 125I-[Phe13,Tyr19]-MCH binding to human MCH-R2 at 2uM.

T1 sequence (Q99705 whole entry): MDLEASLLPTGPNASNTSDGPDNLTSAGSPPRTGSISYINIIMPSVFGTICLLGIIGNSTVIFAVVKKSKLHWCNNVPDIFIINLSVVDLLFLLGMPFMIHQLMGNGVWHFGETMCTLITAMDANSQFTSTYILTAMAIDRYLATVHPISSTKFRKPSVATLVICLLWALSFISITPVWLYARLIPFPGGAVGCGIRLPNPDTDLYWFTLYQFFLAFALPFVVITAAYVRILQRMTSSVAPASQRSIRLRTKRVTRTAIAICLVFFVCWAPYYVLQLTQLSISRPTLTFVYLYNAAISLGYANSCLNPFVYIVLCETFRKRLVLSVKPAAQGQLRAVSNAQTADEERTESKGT
Chain of Melanin-concentrating hormone receptor 2 (Q969V1 whole entry): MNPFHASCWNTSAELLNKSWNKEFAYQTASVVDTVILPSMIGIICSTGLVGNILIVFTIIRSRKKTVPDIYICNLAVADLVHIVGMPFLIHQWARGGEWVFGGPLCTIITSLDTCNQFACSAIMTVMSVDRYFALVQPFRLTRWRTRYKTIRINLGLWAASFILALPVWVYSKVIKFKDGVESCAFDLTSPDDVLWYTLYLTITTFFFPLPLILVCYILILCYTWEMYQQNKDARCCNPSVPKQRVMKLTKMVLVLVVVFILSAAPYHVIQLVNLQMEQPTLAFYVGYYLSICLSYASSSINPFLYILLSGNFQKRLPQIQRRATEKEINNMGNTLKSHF

For `CCCc1cc(N)c2cc(NC(=O)/C=C/c3ccc(C(C)C)cc3)ccc2n1`, the IC50 – broadly, the concentration needed to halve the response being measured – in test [1] turned out to be 0.0029 µM. Besides, the EC50 (usually the midpoint of the concentration-response curve) in test [2] is 0.52 µM. In addition, in test [3], the inhibition (usually the change of the read-out against control, counted positive when it falls) was < 50%.

For `Cc1cc(N)c2cc(NC(=O)/C=C/c3ccc(C(F)(F)F)cc3)ccc2n1`, in test [1], the IC50 came to 0.008 µM. For the same compound, the EC50 in test [2] was 0.14 µM. In test [3], the inhibition is < 50%.

`CCCc1cc(N)c2cc(NC(=O)/C=C/c3ccc(C(F)(F)F)cc3)ccc2n1` (stereo in doubt; form 3) [listing 1 of 2 here] gave an IC50 in test [1] of 0.0013 µM. The EC50 in test [2] was 0.06 µM.

In test [1], `CCCc1cc(N2CCCC2)c2cc(NC(=O)/C=C/c3ccc(C(F)(F)F)cc3)ccc2n1` displayed an IC50 of 0.017 µM. Besides, the concentration giving a half-maximal response (EC50) in test [2] came out at 2.8 µM. In addition, the inhibition in test [3] was < 50%.

Consider `CCCc1cc(N)c2cc(NC(=O)c3ccc(-c4ccc(C(F)(F)F)cc4)cc3)ccc2n1`, for which the IC50 in test [1] is 0.0045 µM. Further, the EC50 in test [2] came to 0.31 µM. Moreover, in test [3], the inhibition was < 50%.

In test [1], `CCCc1cc(N)c2cc(NC(=O)/C=C/c3ccc(-c4ccccc4)cc3)ccc2n1` showed an IC50 of 0.0011 µM. Besides, the EC50 in test [2] came to 0.118 µM. Also, the inhibition in test [3] is < 50%.

For `CCCc1cc(N2CCCCC2)c2cc(NC(=O)/C=C/c3ccc(C(F)(F)F)cc3)ccc2n1`, the IC50 in test [1] is > 4 µM. In addition, the inhibition in test [3] was < 50%.

Turning to `CCCc1cc(N)c2cc(NC(=O)CCc3ccccc3)ccc2n1`, in test [1], the IC50 worked out at 8.3 µM. The inhibition in test [3] is < 50%.

`CCCCCc1cc(N)c2cc(NC(=O)/C=C/c3ccc(C(F)(F)F)cc3)ccc2n1` returned a concentration for half-maximal inhibition (IC50) in test [1] of 0.0012 µM. Also, the EC50 in test [2] is 0.09 µM. Moreover, the inhibition in test [3] was < 50%.

`CCCc1cc(N)c2cc(NC(=O)/C=C/c3ccc(C(F)(F)F)cc3)ccc2n1` (stereo in doubt; form 1) [listing 1 of 2 here]: the inhibition in test [3] is < 50%.

`CCCc1cc(N)c2cc(C(=O)NCCc3ccc(C(F)(F)F)cc3)ccc2n1`: in test [1], the IC50 was found to be 2.7 µM. In test [3], the inhibition is < 50%.

The compound `CCCc1cc(N)c2cc(NC(=O)/C=C/c3ccc(O)cc3)ccc2n1` returned an IC50 in test [1] of 1.1 µM. For the same compound, the inhibition in test [3] was < 50%.

For the compound `CCCc1cc(N)c2cc(NC(=O)/C=C/c3ccc(C(F)(F)F)cc3)ccc2n1` (stereo in doubt; form 3) [listing 2 of 2 here], the inhibition in test [3] was < 50%.

For `CCCc1cc(N)c2cc(NC(=O)/C=C/c3ccc(C(F)(F)F)cc3)ccc2n1` (stereo in doubt; form 2) [listing 1 of 2 here], the inhibition in test [3] is < 50%.

Take `CCCc1cc(N)c2cc(NC(=O)c3ccc(C(F)(F)F)cc3)ccc2n1`: in test [1], the IC50 stood at 10 µM. Also, in test [3], the inhibition was < 50%.

For `CCCc1cc(N)c2cc(NC(=O)/C=C/c3ccc(N)cc3)ccc2n1`, in test [1], the IC50 is 0.19 µM. Besides, in test [3], the inhibition was < 50%.

For `CCCc1cc(N)c2cc(N(C)C(=O)CCc3ccc(C(F)(F)F)cc3)ccc2n1`, the IC50 in test [1] was 1.7 µM. The inhibition in test [3] is < 50%.

For the compound `CCCc1cc(N)c2cc(NC(=O)Cc3ccc(C(F)(F)F)cc3)ccc2n1`, in test [1], the IC50 was 4 µM. The inhibition in test [3] is < 50%.

Turning to `CCCc1cc(N)c2cc(NC(=O)/C=C/c3cccc(Cl)c3)ccc2n1`, in test [1], the IC50 came to 1.1 µM. In test [3], the inhibition is < 50%.

Turning to `CCCc1cc(N(CC)CC)c2cc(NC(=O)/C=C/c3ccc(C(F)(F)F)cc3)ccc2n1`, the IC50 in test [1] turned out to be 1.1 µM. Further, the inhibition in test [3] is < 50%.

As for `CCCc1cc(NC2CC2)c2cc(NC(=O)/C=C/c3ccc(C(F)(F)F)cc3)ccc2n1`, the IC50 in test [1] worked out at 0.04 µM. Also, the inhibition in test [3] is < 50%.

In the case of `CCCc1cc(N)c2cc(NC(=O)/C=C/c3ccccc3)ccc2n1`, the IC50 in test [1] worked out at 1 µM. Also, the inhibition in test [3] was < 50%.

The compound `CCCc1cc(N)c2cc(NC(=O)/C=C/c3ccc(C(F)(F)F)cc3)ccc2n1` (stereo in doubt; form 2) [listing 2 of 2 here] registered an IC50 in test [1] of 0.002 µM. Besides, the EC50 in test [2] was found to be 0.04 µM.

In the case of `CCCc1cc(N)c2cc(NC(=O)/C=C/c3ccc(C(F)(F)F)cc3)ccc2n1` (stereo in doubt; form 1) [listing 2 of 2 here], in test [1], the IC50 was found to be 0.0013 µM. The EC50 in test [2] was determined as 0.061 µM.

For the origin of these results see ChEMBL document CHEMBL1137266, “4-Aminoquinoline melanin-concentrating hormone 1-receptor (MCH1R) antagonists” (Bioorg Med Chem Lett, 2006).
